Where a name gives a salt, the structure may show the parent alone.
Key:
[1] = tested on: HB4a c5.2 (HB4a transfected with human c-erbB2 cDNA); test: Methylene blue growth inhibition assay, HB4a erbB2; format: cell-based; details: 72 h, HB4a c5.2, 3 days, read-out: Cell Proliferation HB4a erbB2, IC50
Procedure: (§1) Human breast (BT474), head and neck (HN5) and gastric tumor (N87) cell lines were cultured in low glucose DMEM (Life Technologies 12320–032) containing 10% fetal bovine serum (FBS) at 37° C. in a humidified 10% CO2, 90% air incubator. The SV40 transformed human mammary epithelial cell line HB4a was transfected with either human H-ras cDNA (HB4a r4.2) or the human c-erbB2 cDNA (HB4a c5.2). The HB4a clones were cultured in RPMI containing 10% FBS, insulin (5 μg/ml), hydrocortisone (5 μg/ml), supplemented with the selection agent hygromycin B (50 μg/ml). Cells were harvested using trypsin/EDTA, counted using a haemocytometer, and plated in […] of the appropriate media, at the following densities, in a 96-well tissue culture plate (Falcon 3075): BT474 10,000 cells/well, HN5 3,000 cells/well, N87 10,000 cells/well, HB4a c5.2 3,000 cells/well, HB4a r4.2 3,000 cells/well. The next day, compounds were diluted in DMEM containing […] gentamicin, at twice the final required concentration, from 10 mM stock solutions in DMSO. […] of these dilutions were added to the […] of media currently on the cell plates. Medium containing 0.6% DMSO was added to control wells. Compounds diluted in DMEM were added to all cell lines, including the HB4a r4.2 and HB4a c5.2 cell lines. The final concentration of DMSO in all wells was 0.3%. Cells were incubated at 37° C., 10% CO2 for 3 days. Medium was removed by aspiration. Cell biomass was estimated by staining cells with 100 μl per well methylene blue (Sigma M9140, 0.5% in 50:50 ethanol:water), and incubation at room temperature for at least 30 minutes. Stain was removed, and the plates rinsed under a gentle stream of water, and air-dried. To release stain from the cells 100 μl of solubilization solution was added (1% N-lauroyl sarcosine, Sodium salt, Sigma L5125, in PBS), and plates were shaken gently for about 30 minutes. Optical density at 620 nm was measured on a microplate reader. Percent inhibition of cell growth was calculated relative to vehicle treated control wells. Concentration of compound that inhibits 50% of cell growth (IC50) was interpolated using nonlinear regression (Levenberg-Marquardt) and the equation, y=Vmax*(1−(x/(K+x)))+Y2, where “K” was equal to the IC50.

[2] = tested on: HN5 head and neck tumor cell line; test: Methylene blue growth inhibition assay, HN5; format: cell-based; details: Homo sapiens, 72 h; HN5, 3 days; read-out: Cell Proliferation HN5, IC50
Procedure: as §1

[3] = tested on: N87 gastric tumor cell line; test: Methylene blue growth inhibition assay, N87; format: cell-based; details: Homo sapiens, 72 h; N87, 3 days; read-out: Cell Proliferation N87, IC50
Procedure: as §1

c-erbB-2 = biological target: T1, c-erbB-2 (Homo sapiens, UniProt P04626); test: Substrate phosphorylation assay, erbB2, assay (b) (SPA, 33P-ATP); format: biochemical; details: Tables 1A and 1B
T1 construct: baculovirus expressed, recombinant constructs of the intracellular domains of c-erbB-2 and c-erbB-4; made in house
T1 sequence (P04626 676-1255 limits assumed): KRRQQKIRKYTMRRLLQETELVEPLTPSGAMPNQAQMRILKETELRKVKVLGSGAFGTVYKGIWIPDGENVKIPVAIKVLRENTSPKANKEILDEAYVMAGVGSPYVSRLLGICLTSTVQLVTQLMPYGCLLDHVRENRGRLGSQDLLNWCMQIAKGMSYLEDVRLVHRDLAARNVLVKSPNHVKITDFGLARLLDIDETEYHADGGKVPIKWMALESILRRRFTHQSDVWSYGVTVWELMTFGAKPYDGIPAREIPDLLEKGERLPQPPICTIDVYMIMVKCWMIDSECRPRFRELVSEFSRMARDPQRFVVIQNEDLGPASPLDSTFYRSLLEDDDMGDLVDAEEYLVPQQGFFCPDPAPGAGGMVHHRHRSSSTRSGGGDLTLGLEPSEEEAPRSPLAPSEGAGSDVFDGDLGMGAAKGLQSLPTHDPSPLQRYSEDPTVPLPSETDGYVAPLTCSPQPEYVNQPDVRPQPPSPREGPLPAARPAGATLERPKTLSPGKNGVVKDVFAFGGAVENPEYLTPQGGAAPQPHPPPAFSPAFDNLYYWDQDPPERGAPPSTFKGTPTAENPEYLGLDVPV
Excerpt: (§2) The substrate phosphorylation assays use baculovirus expressed, recombinant constructs of the intracellular domains of c-erbB-2 and c-erbB-4 that are constitutively active and EGFr isolated from solubilised A431 cell membranes. The method measures the ability of the isolated enzymes to catalyse the transfer of the g-phosphate from ATP onto tyrosine residues in a biotinylated synthetic peptide (Biotin-[…]. Substrate phosphorylation was detected following either of the following two procedures: a.) c-ErbB-2, c-ErbB4 or EGFr were incubated for 30 minutes, at room temperature, with 10 mM MnCl2, 10 mM ATP, 5 mM peptide, and test compound (diluted from a 5 mM stock in DMSO, final DMSO concentration is 2%) in 40 mM HEPES buffer, pH 7.4. The reaction was stopped by the addition of EDTA (final concentration 0.15 mM) and a sample was transferred to a streptavidin-coated 96-well plate. The plate was washed and the level of phosphotyrosine on the peptide was determined using a Europium-labelled antiphosphotyrosine antibody and quantified with a time-resolved fluorescence technique. b.) ErbB2 was incubated for 50 minutes at room temperature with 15 mM MnCl2, 2 mM ATP, 0.25 mCi [γ-^33P] ATP/well, 5 mM peptide substrate, and test compound (diluted from a 10 mM stock in DMSO, final DMSO concentration is 2%) in 50 mM MOPS pH 7.2. The reaction was terminated by the addition of […] of PBS containing 2.5 mg/ml streptavidin-coated SPA beads (Amersham Inc.), 50 mM ATP, 10 mM EDTA and 0.1% TX-100. The microtitre plates were sealed and SPA beads were allowed to settle for at least six hours. The SPA signal was measured using a Packard Topcount 96-well plate scintillation counter (Packard Instrument Co., Meriden, Conn.).

[4] = tested on: HB4a r4.2 (HB4a transfected with human H-ras cDNA); test: Methylene blue growth inhibition assay, HB4a ras; format: cell-based; details: 72 h, HB4a r4.2, 3 days, read-out: Cell Proliferation HB4a ras, IC50
Procedure: as §1

[5] = biological target: T2, EGFr isolated from solubilised A431 cell membranes (Homo sapiens, UniProt P00533); test: Substrate phosphorylation assay, EGF-r, assay (a) (time-resolved fluorescence); format: biochemical
T2 construct: EGFr isolated from solubilised A431 cell membranes; endogenous in cells; host or cells: A431 cell membranes (solubilised)
T2 sequence (P00533 25-1210): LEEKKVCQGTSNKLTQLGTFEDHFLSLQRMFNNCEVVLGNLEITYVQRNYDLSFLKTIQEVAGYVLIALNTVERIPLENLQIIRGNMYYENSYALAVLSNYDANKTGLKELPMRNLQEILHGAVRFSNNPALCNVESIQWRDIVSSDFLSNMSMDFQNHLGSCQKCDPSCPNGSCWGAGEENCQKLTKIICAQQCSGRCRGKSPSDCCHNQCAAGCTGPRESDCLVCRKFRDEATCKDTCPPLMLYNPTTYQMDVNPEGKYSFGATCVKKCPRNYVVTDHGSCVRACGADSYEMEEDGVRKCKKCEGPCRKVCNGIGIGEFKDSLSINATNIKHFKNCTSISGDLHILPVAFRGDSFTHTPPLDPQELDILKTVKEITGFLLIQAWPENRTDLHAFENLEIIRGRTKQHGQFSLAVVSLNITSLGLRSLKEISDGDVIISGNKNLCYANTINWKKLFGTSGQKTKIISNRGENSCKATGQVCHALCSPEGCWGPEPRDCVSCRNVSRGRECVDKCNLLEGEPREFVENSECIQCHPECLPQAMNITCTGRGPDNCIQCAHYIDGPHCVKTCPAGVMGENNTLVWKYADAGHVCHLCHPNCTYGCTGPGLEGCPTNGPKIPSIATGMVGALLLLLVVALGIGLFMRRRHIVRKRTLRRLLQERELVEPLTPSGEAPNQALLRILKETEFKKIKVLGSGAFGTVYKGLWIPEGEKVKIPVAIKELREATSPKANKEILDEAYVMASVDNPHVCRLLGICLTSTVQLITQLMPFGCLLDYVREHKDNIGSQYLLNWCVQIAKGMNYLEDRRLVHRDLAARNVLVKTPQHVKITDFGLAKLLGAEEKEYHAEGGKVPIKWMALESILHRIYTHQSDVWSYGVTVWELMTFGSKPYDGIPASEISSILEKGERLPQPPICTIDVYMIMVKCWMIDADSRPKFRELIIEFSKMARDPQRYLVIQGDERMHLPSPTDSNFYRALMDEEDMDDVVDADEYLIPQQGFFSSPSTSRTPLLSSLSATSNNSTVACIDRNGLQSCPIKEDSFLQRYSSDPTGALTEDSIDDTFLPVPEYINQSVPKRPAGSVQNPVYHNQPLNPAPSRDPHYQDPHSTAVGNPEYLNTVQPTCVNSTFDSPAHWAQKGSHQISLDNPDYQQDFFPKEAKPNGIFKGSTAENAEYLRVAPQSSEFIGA
Excerpt: as §2

[6] = tested on: BT474 breast tumor cell line; test: Methylene blue growth inhibition assay, BT474; format: cell-based; details: Homo sapiens, BT-474, 72 h; BT474, 3 days; read-out: Cell Proliferation BT474, IC50
Procedure: as §1

[7] = Major metabolites: liver S-9 homogenate incubation, LC-MS metabolite identification; format: in vitro ADME, Sprague Dawley rat and human; details: liver S-9 (rat, human), 10 μM, 60 min, 37° C.
Procedure: Liver S-9 homogenates (5 mg/mL protein concentration) from prepared pooled male Sprague Dawley rat livers and pooled human livers (XenoTech, LLC, Kansas City, Kans.) were incubated in 96-well polypropylene plates with representative examples selected from examples 1 to 40 (10 μM) in a total volume of 0.5 mL. Stock solutions of these compounds were prepared in DMSO at a concentration of 1 mM to maintain a <1% final DMSO concentration for each reaction. Enzymatic incubations contained cofactors (5.71 mM NADPH, 7.14 mM glucose-6-phosphate, 7.14 mM UDPGA, 47.1 mM potassium chloride, and 11.4 mM magnesium chloride in 0.1 M potassium phosphate buffer, pH 7.4). Control samples were aspirated from the reaction samples at time zero and placed immediately into 2 volumes of ice-chilled acetonitrile. Sample reaction plates were incubated for 60 min in a shaker incubator maintained at 37° C. supplied with O2. Reactions were terminated by addition of 2 volumes of ice-chilled acetonitrile. All samples were vortexed and centrifuged at 2000×g for 10 min. The supernatant was removed and analyzed by LC-MS. The metabolite identification work was done by using reversed-phase HPLC coupled with ion-trap mass spectroscopy.

IC50 [2] | IC50 [3] | IC50 (c-erbB-2) | IC50 [5] | IC50 [6] | identified as a major metabolite of N-[4-(benzyloxy)phenyl]-6-[4-({[2-(methanesulphonyl)ethyl]amino}methyl)-2-furyl]-4-quinazolinamine (Example 11) [7] | SMILES | IC50 [1] | IC50 [4]
< 5 µM | < 5 µM | 0.1 to 1 µM | < 0.1 µM | < 5 µM |  | CS(=O)(=O)CCNCc1cccc(-c2cc3c(Nc4ccc(OCc5ccccc5)cc4)ncnc3cn2)c1 [Example 4, (4-Benzyloxy-phenyl)-(6-(3-((2-methanesulphonyl-ethylamino)-methyl)-phenyl)-pyrido[3,4-d]pyrimidin-4-yl)-amine dihydrochloride] | < 5 µM | > 50 µM
< 5 µM | < 5 µM | < 0.1 µM | < 0.1 µM | < 5 µM |  | CS(=O)(=O)CCNCc1ccc(-c2cc3c(Nc4ccc(S(=O)(=O)c5ccccc5)cc4)ncnc3cn2)o1 [Example 3, (4-Benzenesulphonyl-phenyl)-(6-(5-((2-methanesulphonyl-ethylamino)-methyl)-furan-2-yl)-pyrido[3,4-d]pyrimidin-4-yl)-amine dihydrochloride] | < 5 µM | 25 to 50 µM
< 5 µM | < 5 µM | < 0.1 µM | < 0.1 µM | < 5 µM |  | CS(=O)(=O)CCNCc1ccc(-c2cc3c(Nc4ccc(OCc5ccc(F)cc5)cc4)ncnc3cn2)o1 [Example 1, (4-(4-Fluorobenzyloxy)-phenyl)-(6-(5-((2-methanesulphonyl-ethylamino)methyl)-furan-2-yl)-pyrido[3,4-d]pyrimidin-4-yl)-amine dihydrochloride] | < 5 µM | 25 to 50 µM
 |  |  |  |  | identified as a major metabolite | NCc1coc(-c2ccc3ncnc(Nc4ccc(OCc5ccccc5)cc4)c3c2)c1 [N-[4-(Benzyloxy)phenyl]-6-[4-(aminomethyl)-2-furyl]-4-quinazolinamine] |  | 

From patent US7109333B2, “Heterocyclic compounds” (SmithKline Beecham Corporation, priority 1998, dated 2006)
